# In patent publication US8426449B2, “Aminoalkylphenyl antagonists of prostaglandin D2 receptors” (Panmira Pharmaceuticals, LLC, priority 2008, dated 2013):
# Target: T1, human DP2 receptor (Homo sapiens, UniProt Q9Y5Y4)
# T1 construct: expressed in transfected cells
# T1 sequence (Q9Y5Y4 1-395): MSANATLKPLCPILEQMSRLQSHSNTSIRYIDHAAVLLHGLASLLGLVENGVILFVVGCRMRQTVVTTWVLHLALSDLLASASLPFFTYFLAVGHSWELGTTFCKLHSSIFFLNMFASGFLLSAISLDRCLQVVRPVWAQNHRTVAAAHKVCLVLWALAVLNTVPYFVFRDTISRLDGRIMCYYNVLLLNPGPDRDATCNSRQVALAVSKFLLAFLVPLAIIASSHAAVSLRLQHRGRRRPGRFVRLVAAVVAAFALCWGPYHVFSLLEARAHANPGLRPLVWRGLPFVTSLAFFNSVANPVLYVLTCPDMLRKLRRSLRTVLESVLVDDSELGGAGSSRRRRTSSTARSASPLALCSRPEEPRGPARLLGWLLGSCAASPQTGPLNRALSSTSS
# Test: DP2/CRTH2 radioligand binding assay using [3H]PGD2
# Details: hDP2 (CRTH2) binding assay, membranes of HEK293 cells expressing recombinant human DP2
# Protocol: The ability of a compound to bind to the human DP2 receptor is assessed via a radioligand binding assay using [^3H]PGD2. HEK293 cells stably expressing recombinant human DP2 are resuspended in 10 mM Hepes, 7.4 containing 1 mM DTT, lysed and centrifuged at 75,000×g to pellet the membranes. The membranes are resuspended in 10 mM Hepes, 7.4 containing 1 mM DTT and 10% glycerol to approximately 5 mg protein/ml. Membranes (2-10 μg protein/well) are incubated in 96-well plates with 1 nM [^3H]PGD2 and test compound in Assay Buffer (50 mM Hepes, 10 mM MnCl2, 1 mM EDTA, plus or minus 0.2% human serum albumin, pH 7.4) for 60 minutes at room temperature. The reactions are terminated by rapid filtration through Whatman GF/C glass fibre filter plates. The filter plates were pre-soaked in 0.33% polyethylenimine for 30 minutes at room temperature then washed in Wash Buffer (50 mM Hepes, 0.5 M NaCl pH 7.4) prior to harvesting. After harvesting, the filter plates are washed 3 times with 1 ml cold Wash Buffer then dried. Scintillant is then added to the plates and the radioactivity retained on the filters is determined on a Packard TopCount (Perkin Elmer). Specific binding is determined as total radioactive binding minus non-specific binding in the presence of 10 μM PGD2. IC50s were determined using GraphPad prism analysis of drug titration curves.
row,Structure (SMILES),IC50 [nM]
1,"CCN(Cc1cc(Br)ccc1Oc1cc(CC(=O)O)ccc1OC)C(C)=O [Compound 1-8, (3-{2-[(Acetyl-ethyl-amino)-methyl]-4-bromo-phenoxy}-4-methoxy-phenyl)-acetic acid]",< 300
2,"COC(=O)N(Cc1ccccc1)Cc1cc(C(F)(F)F)ccc1Oc1cc(CC(=O)O)ccc1OC [Compound 1-37, (3-{2-[(Benzyl-methoxycarbonyl-amino)-methyl]-4-trifluoromethyl-phenoxy}-4-methoxy-phenyl)-acetic acid]",< 300
3,"O=C(O)Cc1cccc(Oc2ccc(Br)cc2CN(C(=O)OCc2ccccc2)C2CCc3ccccc32)c1 (stereo in doubt) [Compound 1-6, (3-{2-[((R)-Benzyloxycarbonyl-indan-1-yl-amino)-methyl]-4-bromo-phenoxy}-phenyl)-acetic acid]",< 300
4,"COC(=O)N(Cc1cc(N(C)S(C)(=O)=O)ccc1Oc1cccc(CC(=O)O)c1)[C@@H](C)Cc1ccccc1 [Compound 1-42, [3-(4-(Methanesulfonyl-methyl-amino)-2-{[methoxycarbonyl-((S)-1-methyl-2-phenyl-ethyl)-amino]-methyl}-phenoxy)-phenyl]-acetic acid]",> 300
5,"CCN(Cc1cc(C(F)(F)F)ccc1Oc1cccc(CC(=O)O)c1)S(=O)(=O)c1ccc(C(C)=O)cc1 [Compound 1-29, [3-(2-{[(4-Acetyl-benzenesulfonyl)-ethyl-amino]-methyl}-4-trifluoromethyl-phenoxy)-phenyl]-acetic acid]",< 300
6,"CCN(Cc1cc(C(F)(F)F)ccc1Oc1cccc(CC(=O)O)c1)C(=O)Cc1ccccc1 [Compound 1-18, (3-{2-[(Ethyl-phenylacetyl-amino)-methyl]-4-trifluoromethyl-phenoxy}-phenyl)-acetic acid]",> 300
7,"CC(=O)N(Cc1cc(C(F)(F)F)ccc1Oc1cccc(CC(=O)O)c1)C1CCc2ccccc21 (stereo in doubt) [Compound 1-13, (3-{2-[((R)-Acetyl-indan-1-yl-amino)-methyl]-4-trifluoromethyl-phenoxy}-phenyl)-acetic acid]",< 300
8,"CCN(Cc1cc(C(F)(F)F)ccc1Oc1cccc(CC(=O)O)c1)S(=O)(=O)c1ccc(C)cc1 [Compound 1-27, [3-(2-{[Ethyl-(toluene-4-sulfonyl)-amino]-methyl}-4-trifluoromethyl-phenoxy)-phenyl]-acetic acid]",< 300
9,"CCN(Cc1cc(NC(=O)C(C)(C)C)ccc1Oc1cc(CC(=O)O)ccc1OC)C(C)=O [Compound 1-45, {3-[2-[(Acetyl-ethyl-amino)-methyl]-4-(2,2-dimethyl-propionylamino)-phenoxy]-4-methoxy-phenyl}-acetic acid]",< 300
10,"COC(=O)N(Cc1cc(Br)ccc1Oc1cccc(CC(=O)O)c1)[C@@H](C)Cc1ccccc1 [Compound 1-5, [3-(4-Bromo-2-{[methoxycarbonyl-((S)-1-methyl-2-phenyl-ethyl)-amino]-methyl}-phenoxy)-phenyl]-acetic acid]",< 300
11,"O=C(O)Cc1cccc(Oc2ccc(C(F)(F)F)cc2CNS(=O)(=O)c2ccc(Cl)cc2)c1 [Compound 1-22, (3-{2-[(4-Chloro-benzenesulfonylamino)-methyl]-4-trifluoromethyl-phenoxy}-phenyl)-acetic acid]",< 300
12,"COC(=O)N(Cc1cc(N(C)C(C)=O)ccc1Oc1cccc(CC(=O)O)c1)[C@@H](C)Cc1ccccc1 [Compound 1-39, [3-(4-(Acetyl-methyl-amino)-2-{[methoxycarbonyl-((S)-1-methyl-2-phenyl-ethyl)-amino]-methyl}-phenoxy)-phenyl]-acetic acid]",> 300
13,"CCN(Cc1cc(NC(=O)C(C)(C)C)ccc1Oc1cc(CC(=O)O)ccc1OC)C(=O)C1CC1 [Compound 1-47, {3-[2-[(Cyclopropanecarbonyl-ethyl-amino)-methyl]-4-(2,2-dimethyl-propionylamino)-phenoxy]-4-methoxy-phenyl}-acetic acid]",< 300
14,"COC(=O)N(Cc1ccccc1)Cc1cc(Br)ccc1Oc1cccc(CC(=O)O)c1 [Compound 1-3, (3-{2-[(Benzyl-methoxycarbonyl-amino)-methyl]-4-bromo-phenoxy}-phenyl)-acetic acid]",< 300
15,"COc1ccc(CC(=O)O)cc1Oc1ccc(Br)cc1CN[C@H]1c2ccccc2C[C@H]1O [Compound 1-7, (3-{4-Bromo-2-[((1S,2R)-2-hydroxy-indan-1-ylamino)-methyl]-phenoxy}-4-methoxy-phenyl)-acetic acid]",> 1000
16,"CCN(Cc1cc(C(F)(F)F)ccc1Oc1cccc(CC(=O)O)c1)S(=O)(=O)c1ccc(S(C)(=O)=O)cc1 [Compound 1-28, [3-(2-{[Ethyl-(4-methanesulfonyl-benzenesulfonyl)-amino]-methyl}-4-trifluoromethyl-phenoxy)-phenyl]-acetic acid]",> 300
17,"CCN(Cc1cc(C(F)(F)F)ccc1Oc1cccc(CC(=O)O)c1)S(=O)(=O)c1ccc2ccccc2c1 [Compound 1-30, [3-(2-{[Ethyl-(naphthalene-2-sulfonyl)-amino]-methyl}-4-trifluoromethyl-phenoxy)-phenyl]-acetic acid]",< 300
18,"COC(=O)N(Cc1cc(N(C)C(C)=O)ccc1Oc1cccc(C(C)C(=O)O)c1)[C@@H](C)Cc1ccccc1 (stereo partly drawn) [Compound 1-40, 2-[3-(4-(Acetyl-methyl-amino)-2-{[methoxycarbonyl-((S)-1-methyl-2-phenyl-ethyl)-amino]-methyl}-phenoxy)-phenyl]-propionic acid]",> 300
19,"CCN(Cc1cc(C(F)(F)F)ccc1Oc1cc(CC(=O)O)ccc1OC)C(=O)OC [Compound 1-36, (3-{2-[(Ethyl-methoxycarbonyl-amino)-methyl]-4-trifluoromethyl-phenoxy}-4-methoxy-phenyl)-acetic acid]",> 300
20,"COC(=O)N(Cc1cc(C(F)(F)F)ccc1Oc1cccc(CC(=O)O)c1)C1CCc2ccccc21 (stereo in doubt) [Compound 1-19, (3-{2-[((R)-Indan-1-yl-methoxycarbonyl-amino)-methyl]-4-trifluoromethyl-phenoxy}-phenyl)-acetic acid]",< 300
21,"COC(=O)N(Cc1cc(NC(C)=O)ccc1Oc1cccc(CC(=O)O)c1)[C@@H](C)Cc1ccccc1 [Compound 1-38, [3-(4-Acetylamino-2-{[methoxycarbonyl-((S)-1-methyl-2-phenyl-ethyl)-amino]-methyl}-phenoxy)-phenyl]-acetic acid]",< 300
22,"CCN(Cc1cc(C(F)(F)F)ccc1Oc1cccc(CC(=O)O)c1)S(=O)(=O)c1ccc(N(C)c2cccc(C)c2)cc1 [Compound 1-33, {3-[2-({Ethyl-[4-(methyl-m-tolyl-amino)-benzenesulfonyl]-amino}-methyl)-4-trifluoromethyl-phenoxy]-phenyl}-acetic acid]",< 300
23,"CC(=O)N(Cc1cc(C(F)(F)F)ccc1Oc1cccc(CC(=O)O)c1)C1CCc2ccccc21 (stereo in doubt) [Compound 1-14, (3-{2-[((S)-Acetyl-indan-1-yl-amino)-methyl]-4-trifluoromethyl-phenoxy}-phenyl)-acetic acid]",< 300
24,"COC(=O)N(Cc1ccccc1)Cc1cc(Br)ccc1Oc1cc(CC(=O)O)ccc1OC [Compound 1-11, (3-{2-[(Benzyl-methoxycarbonyl-amino)-methyl]-4-bromo-phenoxy}-4-methoxy-phenyl)-acetic acid]",< 300
